In the NIST ThermoML archive (doi:10.1021/je9008624):

What was measured:
[1] = refractive index (Na D-line) (dimensionless); xn = mol fraction of the nth substance listed; conditions: 298.15 K, 101 kPa, Liquid
[2] = xn = mol fraction of the nth substance listed; conditions: 298.15 K, 101 kPa, Liquid

COC(=O)OC [dimethyl carbonate] + CCCCn1cc[n+](C)c1.F[B-](F)(F)F
x1 = 1
Conditions	mass density [kg/m3]	refractive index
[1]	–	1.36647
[2]	1063.28	–

COC(=O)OC [dimethyl carbonate] + CCOS(=O)(=O)[O-].CCn1cc[n+](C)c1
x1 = 1
Conditions	mass density [kg/m3]	refractive index
[1]	–	1.36647
[2]	1063.28	–

CCCCn1cc[n+](C)c1.F[B-](F)(F)F [1-butyl-3-methylimidazolium tetrafluoroborate] + COC(=O)OC
Conditions	mass density, [2] [kg/m3]	refractive index, [1]
x2 = 0	1192.78	1.41831
x2 = 0.051	1191.17	1.4176
x2 = 0.1014	1189.24	1.41675
x2 = 0.1987	1184.98	1.41501
x2 = 0.2999	1179.76	1.41282
x2 = 0.4012	1173.39	1.41049
x2 = 0.5	1165.72	1.40796
x2 = 0.6005	1155.89	1.40459
x2 = 0.7007	1143.06	1.39931
x2 = 0.8003	1125.52	1.39196
x2 = 0.9	1100.22	1.38162

CCOS(=O)(=O)[O-].CCn1cc[n+](C)c1 [1-ethyl-3-methylimidazolium ethyl sulfate] + CO
Conditions	mass density, [2] [kg/m3]	refractive index, [1]
x2 = 0	1236.33	1.47908
x2 = 0.0487	1232.01	1.47873
x2 = 0.0977	1227.32	1.47637
x2 = 0.1978	1216.77	1.47035
x2 = 0.2989	1203.48	1.46618
x2 = 0.3991	1186.7	1.46462
x2 = 0.4991	1165.38	1.46284
x2 = 0.5993	1137.34	1.45585
x2 = 0.7002	1098.94	1.43992
x2 = 0.7999	1043.62	1.41722
x2 = 0.9002	953.54	1.39225
x2 = 0.9502	884.35	1.37316

CO [methanol] + CCCCn1cc[n+](C)c1.F[B-](F)(F)F
x1 = 1
Conditions	mass density [kg/m3]	refractive index
[1]	–	1.32668
[2]	786.72	–

COC(=O)OC [dimethyl carbonate] + CO
Conditions	mass density, [2] [kg/m3]	refractive index, [1]
x1 = 0.0501	814.35	1.33071
x1 = 0.0997	838.96	1.33427
x1 = 0.2008	882.51	1.34139
x1 = 0.3003	918.19	1.347
x1 = 0.4002	948.52	1.35162
x1 = 0.5005	974.63	1.35583
x1 = 0.6004	997.16	1.35891
x1 = 0.7015	1017.04	1.36093
x1 = 0.8012	1034.29	1.36336
x1 = 0.8999	1049.44	1.36501
x1 = 0.9483	1056.31	1.36566
x1 = 1	1063.28	1.36647

CCCCn1cc[n+](C)c1.F[B-](F)(F)F [1-butyl-3-methylimidazolium tetrafluoroborate] + CO
Conditions	mass density, [2] [kg/m3]	refractive index, [1]
x2 = 0	1192.78	1.41831
x2 = 0.0517	1188.58	1.41844
x2 = 0.104	1183.87	1.41726
x2 = 0.1995	1174.09	1.41454
x2 = 0.2975	1162.14	1.41296
x2 = 0.3993	1146.82	1.41485
x2 = 0.5002	1127.34	1.41652
x2 = 0.599	1102.37	1.41435
x2 = 0.6994	1067.86	1.40537
x2 = 0.7997	1016.59	1.39145
x2 = 0.9	934.6	1.37496
x2 = 0.9501	872.82	1.36221
